Data as given in patent US9822155B2 (priority 2013, dated 2017).
Converted amounts (≈) assume the structure as drawn. Where two headings read alike, the source gives them in different places. Peptide text beside a SMILES is read from it.

How the values were obtained:
[1] = tested on: A/Hong Kong/415742Md/2009 (H1N1); assay type: in vivo
in vitro = conditions: dog, MDCK cells
influenza A virus (H1N1) = assay type: cell-based, influenza A virus A/Hong Kong/415742Md/2009 (H1N1)

Row | SMILES | TC50 (50% toxic concentration) (MDCK cells) [µg/mL] | CC50 at 24 h (in vitro) [µg/mL] | viability at 24 h, 7.8 µg/mL (in vitro) [%] | viability at 24 h, 15.6 µg/mL (in vitro) [%] | viability at 24 h, 31.25 µg/mL (in vitro) [%] | viability at 24 h, 62.5 µg/mL (in vitro) [%] | viability at 24 h, 125 µg/mL (in vitro) [%] | viability at 24 h, 250 µg/mL (in vitro) [%] | antiviral effectiveness in low-salt PB compared with high-salt MEM (influenza A virus (H1N1)) | further results
1 | CC[C@H](C)[C@H](NC(=O)[C@H](C)NC(=O)CNC(=O)[C@@H](N)CC(N)=O)C(=O)N[C@@H](CS)C(=O)N[C@@H](Cc1c[nH]c2ccccc12)C(=O)NCC(=O)N1CCC[C@H]1C(=O)N[C@@H](CS)C(=O)N1CCC[C@H]1C(=O)N[C@H](C(=O)N[C@@H](C)C(=O)N[C@@H](Cc1ccccc1)C(=O)N[C@@H](CCCNC(=N)N)C(=O)N[C@@H](CCC(N)=O)C(=O)N[C@H](C(=O)NCC(=O)N[C@@H](CC(N)=O)C(=O)N[C@@H](CS)C(=O)NCC(=O)N[C@@H](Cc1c[nH]cn1)C(=O)N[C@@H](Cc1ccccc1)C(=O)N[C@@H](CCCCN)C(=O)N[C@H](C(=O)N[C@@H](CCCNC(=N)N)C(=O)N[C@@H](CS)C(=O)N[C@@H](CS)C(=O)N[C@@H](CCCCN)C(=O)N[C@H](C(=O)N[C@@H](CCCNC(=N)N)C(=O)O)[C@@H](C)CC)C(C)C)[C@@H](C)CC)[C@@H](C)O [Peptide P9] (H-NGAICWGPCPTAFRQIGNCGHFKVRCCKIR-OH) | 860 (≈ 258 µM) | 860 (≈ 258 µM) | 102 | 95.9 | 108 | 96 | 94.7 | 95.3 | more effective in low-salt phosphate buffer (PB) than in high-salt minimum essential medium (MEM) | endosomal acidification (red fluorescence of pHrodo Red dextran) (endosomal acidification): no red fluorescence in color image was observed; binding of P9 to cells (H1N1 virus): no P9 (SEQ ID NO: 10) was detected on the cell membrane or inside the cells; binding of P9 to virus particles (H1N1 virus): bound to the green-labeled virus particles; virus binding to the cell membrane (H1N1 virus): could not block the virus binding to the cell membrane; virus entry into cells by endocytosis (H1N1 virus): did not affect the virus entry into cells by endocytosis; viral loads in lung tissues (RNA copies by RT-PCR, titers by plaque assay) ([1]; pretreated and i.n. or i.p. treated mice, day 5 after challenge, versus untreated): significantly lower than those of the untreated mice; alveolar damage and interstitial inflammatory infiltration in lung (H&E) ([1]; pretreated or treated mice versus rmBD4 and untreated mice): much less severe; survival rate ([1]; prophylactic, i.n. 50 μg/mouse before challenge with 5 LD50 H1N1, 9 mice/group, 21 days): 100%; survival rate ([1]; therapeutic, i.n. 3 doses 50 μg/dose/day starting 4 hours after lethal challenge): 67%; survival rate ([1]; therapeutic, i.p. 6 doses 200 μg/dose/day starting 4 hours post-challenge): 22%; survival rate ([1]; therapeutic, i.p. 6 doses 400 μg/dose/day starting 4 hours post-challenge): 56%; viability at 24 h, 500 µg/mL (in vitro): 83.4%; viability at 24 h, 750 µg/mL (in vitro): 59.8%; viability at 24 h, 1000 µg/mL (in vitro): 38.7%; antiviral effect (infection ratio by plaque assay) (influenza A virus (H1N1)): highest antiviral effect
2 | CC[C@H](C)[C@H](N)C(=O)N[C@H](C(=O)N[C@@H](CC(N)=O)C(=O)N[C@@H](CC(N)=O)C(=O)N1CCC[C@H]1C(=O)N[C@H](C(=O)N[C@H](C(=O)N[C@@H](CS)C(=O)N[C@@H](CCSC)C(=O)N[C@H](C(=O)N[C@@H](CC(N)=O)C(=O)NCC(=O)N[C@@H](C)C(=O)N[C@H](C(=O)N[C@@H](CS)C(=O)N[C@@H](Cc1c[nH]c2ccccc12)C(=O)NCC(=O)N1CCC[C@H]1C(=O)N[C@@H](CS)C(=O)N1CCC[C@H]1C(=O)N[C@H](C(=O)N[C@@H](C)C(=O)N[C@@H](Cc1ccccc1)C(=O)N[C@@H](CCCNC(=N)N)C(=O)N[C@@H](CCC(N)=O)C(=O)N[C@H](C(=O)NCC(=O)N[C@@H](CC(N)=O)C(=O)N[C@@H](CS)C(=O)NCC(=O)N[C@@H](Cc1c[nH]cn1)C(=O)N[C@@H](Cc1ccccc1)C(=O)N[C@@H](CCCCN)C(=O)N[C@H](C(=O)N[C@@H](CCCNC(=N)N)C(=O)N[C@@H](CS)C(=O)N[C@@H](CS)C(=O)N[C@@H](CCCCN)C(=O)N[C@H](C(=O)N[C@@H](CCCNC(=N)N)C(=O)O)[C@@H](C)CC)C(C)C)[C@@H](C)CC)[C@@H](C)O)[C@@H](C)CC)[C@@H](C)O)[C@@H](C)O)[C@@H](C)CC)[C@@H](C)CC [smBD4, reference compound] | 94 (≈ 21.2 µM) | 94 (≈ 21.2 µM) | 93.7 | 85.3 | 71.9 | 60 | 45.5 | 36.5 | more effective in low-salt phosphate buffer (PB) than in high-salt minimum essential medium (MEM) | –
